In patent publication US10588952B2, “Conjugate vaccine using trimming function of ERAP1” (SUMITOMO DAINIPPON PHARMA CO., LTD., priority 2013, dated 2020):

How the values were obtained:
[1] = target: T1, ERAP1 (Homo sapiens, UniProt Q9NZ08); assay: Test of trimming of N-terminal amino acid by ERAP1 (Experimental Example 9, Examples 69-84); format: biochemical; settings: MAGE-A10 254-262 peptide obtained by ERAP1 trimming; from HPLC AUC;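 also: peptide incubated with ERAP1 for 1 h before HPLC analysis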
T1 sequence (Q9NZ08 whole entry): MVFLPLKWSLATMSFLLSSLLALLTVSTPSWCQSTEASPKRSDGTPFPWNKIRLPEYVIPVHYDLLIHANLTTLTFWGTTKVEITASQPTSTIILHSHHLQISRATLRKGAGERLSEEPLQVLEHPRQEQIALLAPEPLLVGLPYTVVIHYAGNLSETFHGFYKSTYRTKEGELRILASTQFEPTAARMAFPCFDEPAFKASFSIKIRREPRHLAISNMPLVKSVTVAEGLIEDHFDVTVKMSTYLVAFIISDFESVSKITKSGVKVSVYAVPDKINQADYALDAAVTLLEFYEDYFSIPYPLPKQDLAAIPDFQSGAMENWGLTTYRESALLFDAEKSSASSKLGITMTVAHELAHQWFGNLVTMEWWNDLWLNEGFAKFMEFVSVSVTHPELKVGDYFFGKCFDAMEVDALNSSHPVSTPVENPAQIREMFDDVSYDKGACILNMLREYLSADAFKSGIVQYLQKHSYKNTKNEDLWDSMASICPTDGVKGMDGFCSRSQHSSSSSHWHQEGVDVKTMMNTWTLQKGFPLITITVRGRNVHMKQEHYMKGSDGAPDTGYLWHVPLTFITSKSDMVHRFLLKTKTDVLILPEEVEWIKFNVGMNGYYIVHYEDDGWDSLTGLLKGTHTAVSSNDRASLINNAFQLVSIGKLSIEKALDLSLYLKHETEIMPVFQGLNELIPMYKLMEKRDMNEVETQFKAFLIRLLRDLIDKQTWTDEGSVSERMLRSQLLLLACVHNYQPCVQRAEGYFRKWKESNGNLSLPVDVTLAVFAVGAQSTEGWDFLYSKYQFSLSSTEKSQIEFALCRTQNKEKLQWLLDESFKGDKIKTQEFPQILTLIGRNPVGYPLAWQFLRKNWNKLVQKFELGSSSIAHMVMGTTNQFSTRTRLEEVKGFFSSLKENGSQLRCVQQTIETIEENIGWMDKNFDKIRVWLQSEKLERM
Experimental: The peptides synthesized in Examples 69-84 were evaluated for N-terminal amino acid trimming efficiency using ERAP1. 50 μl of ERAP1 solution (10 μg/ml) in pH 8.0, 20 mM Tris.HCl-100 mM NaCl buffer (Tris.HCl buffer) was added to 142 μl of Tris.HCl buffer. 10 mM peptide solution in DMSO (2.0 μl) and 6.0 μL of DMSO were added to the aforementioned ERAP1 solution, and the mixture was blended well and stood at 30° C. […] The peptide obtained by trimming was chemically synthesized separately, and analyzed under similar conditions in the absence of the enzyme. […]
(§1) pump: UFLC manufactured by Shimadzu […]
(§2) solution: 0.1% TFA H2O(A)-0.1% TFA CH3CN(B) […]
(§3) detection wavelength: λ=220 nm gradient: concentration of SOLUTION B was raised from 10% to 50% from 0.0 min to 8.5 min

[2] = target: T1, ERAP1; assay: Test of trimming of N-terminal amino acid by ERAP1 (Experimental Example 10, Examples 85-103); format: biochemical; settings: MAGE-A10 254-262 peptide obtained by ERAP1 trimming; from HPLC AUC
Experimental: The peptides synthesized in Examples 85-103 were evaluated for N-terminal amino acid trimming efficiency using ERAP1. 50 μl of ERAP1 solution (10 μg/ml) in pH 8.0, 20 mM Tris.HCl-100 mM NaCl buffer (Tris.HCl buffer) was added to 142 μl of Tris.HCl buffer. 10 mM peptide solution in DMSO (2.0 μl) and 6.0 μL of DMSO were added to the aforementioned ERAP1 solution, and the mixture was blended well and stood at 30° C. […] The peptide to be obtained by trimming was chemically synthesized separately, and analyzed under similar conditions in the absence of the enzyme. The formation ratio of the peptide [MAGE-A10254-262 peptide ([…]) (SEQ ID NO: 19)] obtained by trimming was determined based on the obtained AUC, and is shown in Tables 45 and 46. […]
as §1, §2, §3

[3] = Measurement of solubility in isotonic buffer (Experimental Examples 7 and 8)
Experimental: To prepare a test solution, about 1 mg of a test product was measured and the isotonic buffer (0.5 mL) was added thereto. The prepared solution was shaken at room temperature for 90 min (shaking conditions: RECIPRO SHAKER SR-1N manufactured by TAITEC, Speed=8), centrifuged (15000 rpm, 5 min, room temperature), and the supernatant after centrifugation was used as a test solution.
About 1 mg of the test product was accurately measured, dissolved in 0.1% TFA water/acetonitrile=1/1, made the total amount 10 mL, and this was used as a standard solution of the test product.
The standard solution of the test product and the test solution are analyzed by HPLC (under the analysis conditions described in Table 34), and the solubility of the test product is calculated from the ratio of peak area compared to the standard solution.
column: Chemcopack Quicksorb (4.6 mmφ×150 mm, 5 μm)
manufactured by Chemco Scientific Co., Ltd.
mobile phase: SOLUTION A; 0.1% TFA water, SOLUTION B;
0.1% TFA acetonitrile solution
column temperature: room temperature
detection wavelength: UV 254 nm, 230 nm (2 wavelength detection)
sample injection volume: 10

Substance	formation rate of GLYDGMEHL (SEQ ID NO: 19) [2]	also measured
H-CTGLYDGMEHL-OH [Example 77]	–	formation rate of GLYDGMEHL (SEQ ID NO: 19) [1]: 89.4%
H-CVGLYDGMEHL-OH [Example 80]	–	formation rate of GLYDGMEHL (SEQ ID NO: 19) [1]: 0.0%
H-CWGLYDGMEHL-OH [Example 78]	–	formation rate of GLYDGMEHL (SEQ ID NO: 19) [1]: 0.0%
H-CYGLYDGMEHL-OH [Example 79]	–	formation rate of GLYDGMEHL (SEQ ID NO: 19) [1]: 0.0%
H-DCGLYDGMEHL-OH [Example 95]	3.2%	–
H-GLYDGMEHL-OH [SEQ ID NO: 19]	–	solubility thermodynamic at 90 min ([3]; pH 6): > 1000 µg/mL; solubility thermodynamic at 90 min ([3]; pH 7.4): > 1000 µg/mL
H-NCGLYDGMEHL-OH [Example 94]	18.2%	–
H-PCGLYDGMEHL-OH [Example 86]	19.2%	–
H-QCGLYDGMEHL-OH [Example 85]	3.6%	–
H-RCGLYDGMEHL-OH [Example 93]	0.0%	–
H-SCGLYDGMEHL-OH [Example 87]	22.2%	–
H-TCGLYDGMEHL-OH [Example 88]	7.3%	–
H-VCGLYDGMEHL-OH [Example 91]	2.4%	–
H-VYGFVRACL-OH [SEQ ID NO: 87]	–	solubility thermodynamic at 90 min ([3]; pH 6): > 1000 µg/mL; solubility thermodynamic at 90 min ([3]; pH 7.4): > 1000 µg/mL
H-WCGLYDGMEHL-OH [Example 89]	0.0%	–
H-YCGLYDGMEHL-OH [Example 90]	5.7%	–

Second part, led by results:

formation rate of GLYDGMEHL (SEQ ID NO: 19) [2]	Substance	also measured
2.9%	H-ECGLYDGMEHL-OH [Example 96]	–
17.6%	H-FCGLYDGMEHL-OH [Example 103]	–
10.4%	H-GCGLYDGMEHL-OH [Example 97]	–
0.0%	H-HCGLYDGMEHL-OH [Example 98]	–
0.0%	H-ICGLYDGMEHL-OH [Example 99]	–
0.0%	H-KCGLYDGMEHL-OH [Example 101]	–
0.0%	H-LCGLYDGMEHL-OH [Example 100]	–
5.8%	H-MCGLYDGMEHL-OH [Example 102]	–
